Test results published in publication PMC11079024, “Identification of a family of species-selective complex I inhibitors as potential anthelmintics” (Nature Communications, 2024).
“And” between values parts separate entries of the source, which are not always exact repeats. Equal values may be shown once. Read-outs that look alike come from different tables or passages of the source.

Tests used:
[1] = test system: L1 wild-type C. elegans
[2] = biological target: C. elegans (N2) complex I (NADH:ubiquinone oxidoreductase) (Caenorhabditis elegans, UniProt P24887+Q93873+Q94360); assay: biochemical; format: biochemical; conditions: for remaining activity at 0.125 µM / remaining activity at 0.313 µM / remaining activity at 0.625 µM / remaining activity at 1.5 µM / remaining activity at 3 µM / remaining activity at 15 µM / remaining activity at 37.5 µM / remaining activity at 75 µM: wild-type C. elegans mitochondria, read-out: percent (%) in vitro complex I activity relative to solvent control
Sequence of C. elegans (N2) complex I (NADH:ubiquinone oxidoreductase) (Q94360 17-199): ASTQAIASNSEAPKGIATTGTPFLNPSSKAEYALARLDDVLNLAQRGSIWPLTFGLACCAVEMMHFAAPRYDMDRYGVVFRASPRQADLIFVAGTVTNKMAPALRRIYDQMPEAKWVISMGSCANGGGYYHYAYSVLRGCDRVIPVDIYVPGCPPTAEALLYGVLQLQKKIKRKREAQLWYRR
Sequence of C. elegans (N2) complex I (NADH:ubiquinone oxidoreductase) (P24887 whole entry): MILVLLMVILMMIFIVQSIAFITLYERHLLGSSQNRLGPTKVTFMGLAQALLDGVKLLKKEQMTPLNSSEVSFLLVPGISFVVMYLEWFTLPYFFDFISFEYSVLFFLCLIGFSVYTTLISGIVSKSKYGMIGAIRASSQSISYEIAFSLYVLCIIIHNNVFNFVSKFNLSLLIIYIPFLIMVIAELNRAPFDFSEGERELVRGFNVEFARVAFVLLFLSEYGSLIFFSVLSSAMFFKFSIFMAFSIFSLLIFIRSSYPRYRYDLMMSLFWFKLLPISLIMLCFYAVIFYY
Sequence of C. elegans (N2) complex I (NADH:ubiquinone oxidoreductase) (Q93873 31-482): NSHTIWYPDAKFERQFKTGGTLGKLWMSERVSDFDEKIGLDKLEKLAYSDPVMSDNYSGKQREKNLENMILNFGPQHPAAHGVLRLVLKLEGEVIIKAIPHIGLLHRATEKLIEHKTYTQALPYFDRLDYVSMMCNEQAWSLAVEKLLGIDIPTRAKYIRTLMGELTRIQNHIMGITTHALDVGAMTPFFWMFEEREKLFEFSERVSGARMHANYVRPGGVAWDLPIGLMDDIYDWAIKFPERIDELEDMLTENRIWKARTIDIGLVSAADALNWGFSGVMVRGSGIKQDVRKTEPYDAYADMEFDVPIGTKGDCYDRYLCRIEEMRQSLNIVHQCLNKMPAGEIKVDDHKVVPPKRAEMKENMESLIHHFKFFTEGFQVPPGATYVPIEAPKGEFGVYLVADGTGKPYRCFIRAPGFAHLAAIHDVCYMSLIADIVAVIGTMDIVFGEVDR
Outline: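 Mitochondria, 0.2 mg/mL protein, freeze-thawed three times, assayed in 25 mM KPi pH 7.5 with BSA, 80 μM NADH, 60 μM decylubiquinone, 160 μM DCIP, antimycin A and KCN. Rate from initial linear slope of A600 over 15 min. % of solvent control.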

[3] = C. elegans, Mean of replicates, read-out: Complex I activity, dose-response data
[4] = C. elegans, individual replicates (Rep), read-out: Complex I activity, dose-response data

In the case of O=C(NCCc1ccc(Cl)cc1)c1ccccc1C(F)(F)F [Wact-11], the “C. elegans L1 relative motility, 3-hour post 200 µM KCN dilution” value (from here on “C. elegans L1 relative motility”) [1] is reported as 0.985, the “KCN survival assay value relative to DMSO control” value [1] is reported as 0.985 and the “relative motility, 20 min after KCN removal” value [1] is reported as 0.070. For the same compound, the “relative motility, 80 min after KCN removal” value [1] was 0.012, the “relative motility, 110 min after KCN removal” value [1] was 0.018 and the “relative motility, 160 min after KCN removal” value [1] was 0.009. For the same compound, the “relative motility, 180 min after KCN removal” value [1] was 0.000, the “KCN survival assay value relative to DMSO control” value ([1]; 15 hour drug + KCN treatment, dose 0.1 µM, Mean of replicates) was 0.937 and the “KCN survival assay value relative to DMSO control” value ([1]; 15 hour drug + KCN treatment, dose 0.2 µM, Mean of replicates) was 0.997. The “KCN survival assay value relative to DMSO control” value ([1]; 15 hour drug + KCN treatment, dose 0.4 µM, Mean of replicates) was 0.959, the “KCN survival assay value relative to DMSO control” value ([1]; 15 hour drug + KCN treatment, dose 0.8 µM, Mean of replicates) was 0.815 and the “KCN survival assay value relative to DMSO control” value ([1]; 15 hour drug + KCN treatment, dose 3.1 µM, Mean of replicates) was 0.584. The “KCN survival assay value relative to DMSO control” value ([1]; 15 hour drug + KCN treatment, dose 6.3 µM, Mean of replicates) was 0.376, the “KCN survival assay value relative to DMSO control” value ([1]; 15 hour drug + KCN treatment, dose 12.5 µM, Mean of replicates) was 0.173 and the “KCN survival assay value relative to DMSO control” value ([1]; 15 hour drug + KCN treatment, dose 25 µM, Mean of replicates) was 0.067. The “KCN survival assay value relative to DMSO control” value ([1]; 15 hour drug + KCN treatment, dose 50 µM, Mean of replicates) was 0.015, the “KCN survival assay value relative to DMSO control” value ([1]; 15 hour drug + KCN treatment, dose 100 µM, Mean of replicates) was 0.006 and the LC50 ([1]; caenorhabditis elegans) was 4.43 µM. The “C. elegans L1 relative motility” value ([1]; dose 0.1 µM, Mean of replicates) was 0.937, the “C. elegans L1 relative motility” value ([1]; dose 0.2 µM, Mean of replicates) was 0.997 and the “C. elegans L1 relative motility” value ([1]; dose 0.4 µM, Mean of replicates) was 0.959. For the same compound, the “C. elegans L1 relative motility” value ([1]; dose 0.8 µM, Mean of replicates) was 0.815, the “C. elegans L1 relative motility” value ([1]; dose 3.1 µM, Mean of replicates) was 0.584 and the “C. elegans L1 relative motility” value ([1]; dose 6.3 µM, Mean of replicates) was 0.376. The “C. elegans L1 relative motility” value ([1]; dose 12.5 µM, Mean of replicates) was 0.173, the “C. elegans L1 relative motility” value ([1]; dose 25 µM, Mean of replicates) was 0.067 and the “C. elegans L1 relative motility” value ([1]; dose 50 µM, Mean of replicates) was 0.015. The “C. elegans L1 relative motility” value ([1]; dose 100 µM, Mean of replicates) was 0.006, the “C. elegans L1 relative motility” value ([1]; dose […], Mean of replicates) was 0.795 and the “% Activity Complex I” value ([2]; 100 µM compound, relative to solvent control, mean (SEM)) was 84.83 (1.45) %. For the same compound, the “CI Activity” value ([2]; 100 μM inhibitor, in vitro activity relative to solvent control, N2 C. elegans mitochondria, Mean) was 84.830%, the “Percent in vitro activity, Complex I (single replicate Rep1-Rep4)” value ([2]; 100 μM of NPD compound, C. elegans mitochondria, individual biological replicates) was 83.274% and 93.104% and 79.669% and the “Percent in vitro activity, Complex I (Mean)” value ([2]; 100 μM of NPD compound, C. elegans mitochondria, mean of four biological replicates) was 84.830%.
c1ccc2[nH]c(-c3cscn3)nc2c1 [Thiabendazole] was tested, and the “C. elegans L1 relative motility” value ([1]; […], score 0-1 relative to DMSO, values >1 set to 1) was 1.000.
With COc1cc2c(cc1OC)C(c1ccc(-c3ccc(Cl)c(Cl)c3)o1)=NCC2 [NPD3577] the remaining activity at 0.125 µM ([2]; mean of replicates) was 96.8%, the remaining activity at 0.125 µM ([2]; single replicate) was 96.7% and the remaining activity at 0.313 µM ([2]; mean of replicates) was 92.4%. It also gave a remaining activity at 0.313 µM ([2]; single replicate) of 92.5%, a remaining activity at 0.625 µM ([2]; mean of replicates) of 100% and a remaining activity at 0.625 µM ([2]; single replicate) of 100%. The remaining activity at 1.5 µM ([2]; mean of replicates) was 94.3%, the remaining activity at 1.5 µM ([2]; single replicate) was 96.2% and the remaining activity at 3 µM ([2]; mean of replicates) was 92.6%. For the same compound, the remaining activity at 3 µM ([2]; single replicate) was 93.9%, the remaining activity at 15 µM ([2]; mean of replicates) was 62.2% and the remaining activity at 15 µM ([2]; single replicate) was 62.5%. The remaining activity at 37.5 µM ([2]; mean of replicates) was 42.6%, the remaining activity at 37.5 µM ([2]; single replicate) was 37.8% and the remaining activity at 75 µM ([2]; mean of replicates) was 40.7%. For the same compound, the remaining activity at 75 µM ([2]; single replicate) was 36.7%, the activity at 100 µM ([2]; 100 µM compound, relative to solvent control, mean (SEM), read-out: % Activity Complex I) was 36.8% and the “Percent in vitro activity, Complex I (single replicate Rep1-Rep4)” value ([2]; 100 μM of NPD compound, C. elegans mitochondria, individual biological replicates, 100 µM) was 43.782% and 34.898% and 43.141%. The activity at 100 µM ([2]; 100 μM of NPD compound, C. elegans mitochondria, individual biological replicates, read-out: Percent in vitro activity, Complex I (single replicate Rep1-Rep4)) was 25.5%, the activity at 100 µM ([2]; 100 μM of NPD compound, C. elegans mitochondria, mean of four biological replicates, read-out: Percent in vitro activity, Complex I (Mean)) was 36.8% and the activity at 0.0001 µM [2, 3] was 100%. The activity at 0.0001 µM [2, 4] was 100%, the activity at 0.0005 µM ([2]; C. elegans, dose 0.0005 µM, Mean of replicates, read-out: Complex I activity, dose-response data) was 101% and the “Complex I activity, dose-response data” value ([2]; C. elegans, dose 0.0005 µM, individual replicates (Rep)) was 102.944 and 101.488 and 99.964. The activity at 0.0005 µM ([2]; C. elegans, dose 0.0005 µM, individual replicates (Rep), read-out: Complex I activity, dose-response data) was 99.8%, the activity at 0.001 µM ([2]; C. elegans, dose 0.001 µM, Mean of replicates, read-out: Complex I activity, dose-response data) was 107% and the “Complex I activity, dose-response data” value ([2]; C. elegans, dose 0.001 µM, individual replicates (Rep)) was 100.123 and 101.601 and 102.139 and 122.392. The activity at 0.0025 µM ([2]; C. elegans, dose 0.0025 µM, Mean of replicates, read-out: Complex I activity, dose-response data) was 108%, the “Complex I activity, dose-response data” value ([2]; C. elegans, dose 0.0025 µM, individual replicates (Rep)) was 107.455 and 110.182 and 112.130 and the activity at 0.0025 µM ([2]; C. elegans, dose 0.0025 µM, individual replicates (Rep), read-out: Complex I activity, dose-response data) was 102%. The activity at 0.005 µM ([2]; C. elegans, dose 0.005 µM, Mean of replicates, read-out: Complex I activity, dose-response data) was 104%, the “Complex I activity, dose-response data” value ([2]; C. elegans, dose 0.005 µM, individual replicates (Rep)) was 104.715 and 108.539 and 101.437 and the activity at 0.005 µM ([2]; C. elegans, dose 0.005 µM, individual replicates (Rep), read-out: Complex I activity, dose-response data) was 100%. The activity at 0.013 µM ([2]; C. elegans, dose 0.013 µM, Mean of replicates, read-out: Complex I activity, dose-response data) was 97.9%, the “Complex I activity, dose-response data” value ([2]; C. elegans, dose 0.013 µM, individual replicates (Rep)) was 98.157 and 103.636 and 111.482 and 78.345 and the activity at 0.025 µM ([2]; C. elegans, dose 0.025 µM, Mean of replicates, read-out: Complex I activity, dose-response data) was 98.1%. The “Complex I activity, dose-response data” value ([2]; C. elegans, dose 0.025 µM, individual replicates (Rep)) was 97.798 and 102.639 and 113.034 and 78.823, the activity at 0.063 µM ([2]; C. elegans, dose 0.063 µM, Mean of replicates, read-out: Complex I activity, dose-response data) was 101% and the “Complex I activity, dose-response data” value ([2]; C. elegans, dose 0.063 µM, individual replicates (Rep)) was 101.240 and 102.785 and 102.967. For the same compound, the activity at 0.063 µM ([2]; C. elegans, dose 0.063 µM, individual replicates (Rep), read-out: Complex I activity, dose-response data) was 97%, the activity at 0.125 µM ([2]; C. elegans, dose 0.125 µM, Mean of replicates, read-out: Complex I activity, dose-response data) was 96.8% and the “Complex I activity, dose-response data” value ([2]; C. elegans, dose 0.125 µM, individual replicates (Rep)) was 97.708 and 99.291 and 93.354. The activity at 0.125 µM ([2]; C. elegans, dose 0.125 µM, individual replicates (Rep), read-out: Complex I activity, dose-response data) was 96.7%, the activity at 0.313 µM ([2]; C. elegans, dose 0.313 µM, Mean of replicates, read-out: Complex I activity, dose-response data) was 92.4% and the “Complex I activity, dose-response data” value ([2]; C. elegans, dose 0.313 µM, individual replicates (Rep)) was 97.105 and 93.945 and 86.205. The activity at 0.313 µM ([2]; C. elegans, dose 0.313 µM, individual replicates (Rep), read-out: Complex I activity, dose-response data) was 92.5%, the activity at 0.625 µM [2, 3] was 100% and the activity at 0.625 µM [2, 4] was 100%. For the same compound, the activity at 1.5 µM ([2]; C. elegans, dose 1.5 µM, Mean of replicates, read-out: Complex I activity, dose-response data) was 94.3%, the “Complex I activity, dose-response data” value ([2]; C. elegans, dose 1.5 µM, individual replicates (Rep)) was 94.111 and 90.424 and 96.414 and the activity at 1.5 µM ([2]; C. elegans, dose 1.5 µM, individual replicates (Rep), read-out: Complex I activity, dose-response data) was 96.2%. The activity at 3 µM ([2]; C. elegans, dose 3 µM, Mean of replicates, read-out: Complex I activity, dose-response data) was 92.6%, the “Complex I activity, dose-response data” value ([2]; C. elegans, dose 3 µM, individual replicates (Rep)) was 91.612 and 93.694 and 91.331 and the activity at 3 µM ([2]; C. elegans, dose 3 µM, individual replicates (Rep), read-out: Complex I activity, dose-response data) was 93.9%. For the same compound, the activity at 15 µM ([2]; C. elegans, dose 15 µM, Mean of replicates, read-out: Complex I activity, dose-response data) was 62.2%, the “Complex I activity, dose-response data” value ([2]; C. elegans, dose 15 µM, individual replicates (Rep)) was 63.065 and 59.782 and 63.349 and the activity at 15 µM ([2]; C. elegans, dose 15 µM, individual replicates (Rep), read-out: Complex I activity, dose-response data) was 62.5%. For the same compound, the activity at 37.5 µM ([2]; C. elegans, dose 37.5 µM, Mean of replicates, read-out: Complex I activity, dose-response data) was 42.6%, the “Complex I activity, dose-response data” value ([2]; C. elegans, dose 37.5 µM, individual replicates (Rep)) was 41.693 and 41.389 and 49.686 and the activity at 37.5 µM ([2]; C. elegans, dose 37.5 µM, individual replicates (Rep), read-out: Complex I activity, dose-response data) was 37.8%. The activity at 75 µM ([2]; C. elegans, dose 75 µM, Mean of replicates, read-out: Complex I activity, dose-response data) was 40.7%, the “Complex I activity, dose-response data” value ([2]; C. elegans, dose 75 µM, individual replicates (Rep)) was 47.397 and 37.818 and 40.786 and the activity at 75 µM ([2]; C. elegans, dose 75 µM, individual replicates (Rep), read-out: Complex I activity, dose-response data) was 36.7%. The IC50 ([2]; wild-type (N2) mitochondria, read-out: C. elegans Complex I IC50) was 12.1 µM.
